Measured values from patent US10682409B2, “Therapeutic treatment” (priority 2012, dated 2020).

How the values were obtained:
[1] = system: patients suffering from ADHD; experiment: Clinical Global Impression-Severity scale (CGI-S), Patients A-H; type: in vivo, human
Procedure: In an embodiment, attentiveness is measured using the Clinical Global Impression rating scales to measure symptom severity, treatment response and the efficacy of treatments in treatment studies of patients with mental disorders (Guy, W., 1976). In an embodiment, attentiveness is measure using the Clinical Global Impression-Severity scale (“CGI-S”). In an embodiment, CGI-S is a 7-point scale that requires the clinician to rate the severity of the patient's illness at the time of assessment, relative to the clinician's past experience with patients who have the same diagnosis. Considering total clinical experience, a patient is assessed on severity of mental illness at the time of rating 1, normal, not at all ill; 2, borderline mentally ill; 3, mildly ill; 4, moderately ill; 5, markedly ill; 6, severely ill; or 7, extremely ill. In an embodiment, attentiveness is measured using the Clinical Global Impression-Improvement scale (“CGI-I”). […] In an embodiment, attentiveness is measured using the Clinical Global Impression-Efficacy Index (“CGI-E”).
The age range of the patients was from 6-15 years of age, with a mean age at the start of treatment for ADHD of 8.4 years of age. The mean age at the start of the combination treatment wherein the patient was administered an amphetamine or methylphenidate and an appetite stimulant was 10.3 years of age. The mean treatment period for the eight patients was 1,108 days with a mean of 2.55 ADHD medication changes during the treatment period. Attentiveness in the eight patients was measured using CGI-S and CGI-I. Patients weight and height velocity were measured to identify a difference in weight and height gain prior to and after addition of an appetite stimulant to the treatment for ADHD. Weight velocity was calculated by taking three time points, time 0 upon initiation of medication to treat ADHD, time 1 addition of an appetite stimulant, time 2 the last data point after initiation of combination treatment. The formula to calculate weight velocity for stimulant alone is (weightT1−weight T0)/days from Time 0 to time 1. The formula to calculate weight velocity for combination treatment is (weightT2−weight T1)/days from time 1 to time 2.

[2] = system: patient suffering from ADHD; experiment: Example 1: patient suffering from ADHD treated with and without an appetite stimulant (appetite, blood glucose, attentiveness by CGI-S and CGI-I); type: in vivo, human
Description: A patient suffering from ADHD is prescribed and administered an amphetamine to treat ADHD. The patient takes the amphetamine once a day in the morning or afternoon. […] As a result, the glucose level measured in the blood increases as shown in FIG. 1 and the patient's attentiveness recovers as measured by CGI-S and CGI-I. By taking the appetite stimulant during the time when the patient was awake, the patient increased their caloric intake during times when the patient needed to maintain their attentiveness in order to have reasonable cognition and/or social behaviour.

`CN1CCC(=C2c3ccccc3C=Cc3ccccc32)CC1.Cl` [Periactin, 4-(5H-dibenzo[a,d]cyclohepten-5-ylidene)-1-methylpiperidine hydrochloride] gave a CGI-S score ([1]; Patient A, Periactin 4 mg b.i.d. added to Concerta, FIG. 5) of 3, a CGI-S score ([1]; Patient B, Focalin XR 15 mg and Periactin 4 mg b.i.d. (remained), FIG. 7) of 3 and a CGI-S score ([1]; Patient B, Focalin XR raised to 30 mg at day 1279 with Periactin, FIG. 7) of 2. The CGI-S score ([1]; Patient C, Concerta 36 mg and Periactin 4 mg b.i.d., FIG. 9) was 4, the CGI-S score ([1]; Patient D, Concerta 18 mg and Periactin 2 mg in the morning, FIG. 11) was 5 and the CGI-S score ([1]; Patient D, Concerta increased to 27 mg with Periactin, FIG. 11) was 4. It also gave a CGI-S score ([1]; Patient E, Focalin XR 20 mg and Periactin 4 mg in the morning) of 4, a CGI-S score ([1]; Patient E, Periactin dosed b.i.d. with Focalin XR) of 3 and a CGI-S score ([1]; Patient G, Focalin XR 15 mg and Periactin 4 mg b.i.d., FIG. 17) of 3. For the same molecule, the “CGI-S score versus prior examination” value ([1]; Patient H, Vvyanase 40 mg and Periactin 2 mg b.i.d., day 200, FIG. 19) was “had not changed”, the “lowering of the CGI-S of a patient by addition of the appetite stimulant” value ([1]; Patients A-H, versus same patient prior to appetite stimulant, FIG. 20, 21) was no less than 1 and the “attentiveness as measured by CGI-S and CGI-I” value ([2]; amphetamine and Cyproheptadine once a day) was “recovers”. The appetite ([2]; amphetamine and Cyproheptadine once a day in the morning or afternoon) was “resumes” and the “glucose level measured in the blood” value ([2]; amphetamine and Cyproheptadine once a day, FIG. 1) was “increases”.
